Test results taken from patent US11732560B1, “Nitrate treatment for injectivity improvement” (SAUDI ARABIAN OIL COMPANY, priority 2022, dated 2023).
Like-named read-outs stand apart in the source and are kept apart here.

Experiments:
[1] = system: sulfate reducing bacteria (SRB)
Procedure: The second injection rate, 23 mg/l, was maintained for three weeks.

[2] = system: Nitrate Utilizing Bacterial (NUB); test: Field trial microbiological monitoring: planktonic NUB population; assay type: cell-based, nitrate utilizing bacteria
Procedure: (§1) A field experiment was conducted in an oil field water injection system to determine the effect of nitrate (NO3^-) for controlling sulfate reducing bacteria (SRB) in oilfield operations, and microbial influence corrosion (MIC) for surface pipelines.

[3] = system: NRSOB
Procedure: as §1

[4] = system: sulfide production
Procedure: as §1

For `O=[N+]([O-])O` [nitrate], the SRB activities ([1]; increase observed later after 23 mg/l period, maintained) was 101 SRB/ml, the “minimum SRB achieved” value ([1]; nitrate 11 mg/l) was 10^1 bacteria/ml and the SRB activities ([1]; nitrate 23 mg/l, at the end of three weeks) was “below the detection limits”. For the same compound, the “drop in SRB activities” value ([1]; nitrate 45 mg/l, 10^2 SRB/ml before injection) was 50%, the NUB population ([2]; initially detected, start of nitrate treatment) was 104 NUB/ml and the “planktonic NUB population” value ([2]; nitrate reduced to 23 mg/L and 11 mg/L, over 7 days and after 56 days) was 106 mL⁻¹. For the same compound, the NUB population ([2]; over nitrate treatment with 45 mg/L) was ~10^6 NUB/ml, the NRSOB numbers ([3]; nitrate dose reduced, decreased from 10^6) was 10^4 per ml and the NRSOB numbers ([3]; over treatment with nitrate at 45 mg/L, increased from 10^3) was 10^6 /ml. It also gave a sulfide level ([4]; nitrate 11 mg/L) of 6.7 mg/L, a sulfide level ([4]; nitrate 23 mg/l) of 8 mg/L and a sulfide concentration ([4]; nitrate ion 45 mg/L, 15.8-17.3 ppm detected beforehand) of 8.3 ppm.
